Source: paper PMC3499775 (Journal of pharmaceutical and biomedical analysis, 2012)
pKd: −log10 of the molar value.

target: T1, breast cancer resistance protein (BCRP) (Homo sapiens, UniProt Q9UNQ0); assay: frontal displacement affinity chromatography; assay type: binding; details: nmac-bcrp column
T1 sequence (Q9UNQ0 1-655): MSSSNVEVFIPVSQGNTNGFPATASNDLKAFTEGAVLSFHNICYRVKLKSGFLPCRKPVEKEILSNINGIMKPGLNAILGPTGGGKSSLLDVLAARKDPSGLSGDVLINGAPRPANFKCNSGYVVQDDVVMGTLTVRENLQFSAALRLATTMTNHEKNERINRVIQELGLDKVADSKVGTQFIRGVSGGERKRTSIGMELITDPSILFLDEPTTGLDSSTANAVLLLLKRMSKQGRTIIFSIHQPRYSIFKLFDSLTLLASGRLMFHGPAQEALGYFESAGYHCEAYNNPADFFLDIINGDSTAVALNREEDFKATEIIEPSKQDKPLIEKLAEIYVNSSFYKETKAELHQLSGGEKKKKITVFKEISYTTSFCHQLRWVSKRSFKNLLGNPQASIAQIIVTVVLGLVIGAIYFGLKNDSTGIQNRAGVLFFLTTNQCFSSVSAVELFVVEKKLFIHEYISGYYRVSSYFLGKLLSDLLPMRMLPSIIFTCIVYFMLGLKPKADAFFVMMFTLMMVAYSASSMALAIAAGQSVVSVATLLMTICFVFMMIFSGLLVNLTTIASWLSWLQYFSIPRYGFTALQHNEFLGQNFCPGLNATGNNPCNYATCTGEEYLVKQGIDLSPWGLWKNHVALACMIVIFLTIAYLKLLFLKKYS

Row | SMILES | pKd
1 | COc1ccc(-c2coc3cc(O)cc(O)c3c2=O)cc1 [Biochanin A] | 5.98
2 | COc1cc([C@@H]2c3cc4c(cc3[C@@H](O[C@@H]3O[C@@H]5CO[C@@H](C)O[C@H]5[C@H](O)[C@H]3O)[C@H]3COC(=O)[C@H]23)OCO4)cc(OC)c1O [Etoposide] | 5.34
3 | COc1ccc2c3c([nH]c2c1)[C@H](C=C(C)C)N1C(=O)[C@@H]2CCCN2C(=O)[C@@H]1C3 [FTC, Fumitremorgin C] | 5.79
